Laboratory results from US20150307938A1, “METHOD TO IDENTIFY A NOVEL CLASS OF IMMUNOLOGIC ADJUVANTS” (Lancell, L.L.C., priority 2011, published 2015).

Tested on: skin
Assay: Affymetrix microarray of skin, DBP-4 hr and analogs vs. untreated; gene selection by log-2 fold change, Wilcoxon, Kendall tau (Tables 8, 9)
Type: in vivo, mouse
Details: DBP-4 hr

## CCCCOC(=O)c1ccccc1C(=O)OCCCC [DBP, dibutylphthalate]
NM_013613_at
  DBP Expression: Nr4a2: 7.45
NM_013654_at
  DBP Expression: Ccl7: 8.86
NM_013807_at
  DBP Expression: Plk3: 8.72
NM_013867_at
  DBP Expression: Bcar3: 7.96
NM_013885_at
  DBP Expression: Clic4: 9.05
NM_015811_at
  DBP Expression: Rgs1: 7.35
NM_016689_at
  DBP Expression: Aqp3: 10.49
NM_016693_at
  DBP Expression: Map3k6: 8.79
NM_016880_at
  DBP Expression: Krt35: 5.45
NM_016960_at
  DBP Expression: Ccl20: 11.11
NM_017373_at
  DBP Expression: Nfil3: 8.13
NM_018790_at
  DBP Expression: Arc: 6.81
NM_019388_at
  DBP Expression: Cd86: 7.42
NM_019408_at
  DBP Expression: Nfkb2: 8.26
NM_019511_at
  DBP Expression: Ramp3: 7.94
NM_019840_at
  DBP Expression: Pde4b: 8.96
NM_020008_at
  DBP Expression: Clec7a: 9.14
NM_020581_at
  DBP Expression: Angptl4: 9.51
NM_021451_at
  DBP Expression: Pmaip1: 8.41
NM_022320_at
  DBP Expression: Gpr35: 5.63
NM_022415_at
  DBP Expression: Ptges: 8.31
NM_023158_at
  DBP Expression: Cxcl16: 8.99
NM_024215_at
  DBP Expression: Zfp593: 6.14
NM_025861_at
  DBP Expression: Pqlc1: 10.20
NM_025994_at
  DBP Expression: Efhd2: 10.57
NM_026228_at
  DBP Expression: Slc39a8: 6.13
NM_026268_at
  DBP Expression: Dusp6: 10.59
NM_026931_at
  DBP Expression: 1810011010Rik: 9.68
NM_027514_at
  DBP Expression: Pvr: 6.71
NM_028077_at
  DBP Expression: 1810055G02Rik: 8.40
NM_029219_at
  DBP Expression: Rnf19b: 8.99
NM_029415_at
  DBP Expression: Slc10a6: 9.28
NM_029600_at
  DBP Expression: Abcc3: 7.87
NM_029639_at
  DBP Expression: 1600029D21Rik: 10.16
NM_030599_at
  DBP Expression: Klrb 1b: 6.58
NM_031168_at
  DBP Expression: Il6: 6.41
NM_033601_at
  DBP Expression: Bcl3: 8.92
NM_053087_at
  DBP Expression: Epgn: 9.09
NM_130880_at
  DBP Expression: Otud7a: 7.23
NM_133662_at
  DBP Expression: Ier3: 11.24
NM_133731_at
  DBP Expression: Prss22: 7.96
NM_133753_at
  DBP Expression: Errfi1: 10.14
NM_133806_at
  DBP Expression: Uap1: 9.16
NM_133810_at
  DBP Expression: Stk17b: 9.70
NM_134250_at
  DBP Expression: Havcr2: 7.20
NM_139200_at
  DBP Expression: Cytip: 9.90
NM_144808_at
  DBP Expression: Slc39a14: 6.31
NM_144943_at
  DBP Expression: Cd207: 10.32
NM_145435_at
  DBP Expression: Pyy: 9.16
NM_145470_at
  DBP Expression: Deptor: 9.12
NM_145533_at
  DBP Expression: Smox: 8.07
NM_145996_at
  DBP Expression: Arid5a: 7.61
NM_146118_at
  DBP Expression: Slc25a25: 8.10
NM_153143_at
  DBP Expression: Kctd11: 9.35
NM_153459_at
  DBP Expression: Dusp7: 8.85
NM_172845_at
  DBP Expression: Adamts4: 6.21
NM_177632_at
  DBP Expression: Fam43a: 9.07
NM_178893_at
  DBP Expression: Coro2a: 7.02
NM_212444_at
  DBP Expression: Gyk: 9.63
NM_001008700_at
  DBP Expression: Il4ra: 7.47
NM_001025602_at
  DBP Expression: Il1rl1: 8.40
NM_001033324_at
  DBP Expression: Zbtb16: 6.93
NM_001037937_at
  DBP Expression: Deptor: 9.12
NM_001039150_at
  DBP Expression: Cd44: 9.82
NM_001039151_at
  DBP Expression: Cd44: 9.82
NM_001081212_at
  DBP Expression: Irs2: 8.35
NM_001081214_at
  DBP Expression: Pprc1: 8.81
NM_001104529_at
  DBP Expression: Gpr35: 5.63
NM_001110850_at
  DBP Expression: Crem: 6.91
NM_001110853_at
  DBP Expression: Crem: 6.26
NM_001110854_at
  DBP Expression: Crem: 6.91
NM_001110855_at
  DBP Expression: Crem: 6.91
NM_001110856_at
  DBP Expression: Crem: 6.91
NM_001110857_at
  DBP Expression: Crem: 6.26
NM_001110858_at
  DBP Expression: Crem: 6.26
NM_001110859_at
  DBP Expression: Crem: 6.26
NM_001135149_at
  DBP Expression: Slc39a8: 6.13
NM_001135150_at
  DBP Expression: Slc39a8: 6.13
NM_001135151_at
  DBP Expression: Slc39a14: 6.31
NM_001135152_at
  DBP Expression: Slc39a14: 6.31
NM_001139509_at
  DBP Expression: Nr4a2: 7.45
NM_001159738_at
  DBP Expression: Ccl20: 11.11
NM_001164357_at
  DBP Expression: Slc25a25: 8.10
NM_001164358_at
  DBP Expression: Slc25a25: 8.10
NM_001164420_at
  DBP Expression: Pqlc1: 10.20
NM_001164421_at
  DBP Expression: Pqlc1: 10.20
NM_001164422_at
  DBP Expression: Pqlc1: 10.20
NM_001164804_at
  DBP Expression: Coro2a: 7.02
NM_001166402_at
  DBP Expression: Tnfaip3: 7.22
